# Patent US6667329B1, “Agents with antidepressant action, containing pramipexol and second antidepressant” (Boehringer Ingelheim Pharma GmbH & Co. KG, priority 1998, dated 2003)
# System: rats
# Test: forced swimming test in rats
# Settings: series Pramipexole + amitriptyline
# Excerpt: The test can be carried out as follows for each of the combinations of active substances tested.
structure (smiles),measurement,value
CN(C)CCC=C1c2ccccc2CCc2ccccc21 [Amitriptyline],Immobility time,174.6 ± 9.2 s
"CCCNC1CCc2nc(N)sc2C1.Cl.Cl (centres unmarked) [Pramipexole, 2-amino-6-n-propylamino4,5,6,7-tetrahydrobenzo-thiazole-dihydrochloride]",Immobility time,164.3 ± 9.8 s
